The values that follow come from patent US9090549B2, “1,4-naphthoquinones derivatives and therapeutic use thereof” (CENTRE NATIONAL DE LA RECHERCHE SCIENTIFIQUE (C.N.R.S.), priority 2008, dated 2015).

One data set relates to Pf-GHA. Briefly: Pf-GHA growth inhibition, colorimetric NBT-based lactate dehydrogenase assay. The format is cell-based. The following applies: Plasmodium falciparum, read-out: IC50 against Pf-GHA. On the procedure:
The IC50 values against Pf-GHA and MRC-5 were determined by using the less sensitive colorimetric NBT-based lactate dehydrogenase assay (Makler et al, Am. J. Trop. Med. Hyg. 1993, 48 (6), 739-741) based on redox-reactions.
In Vitro Antiparasitic Bioassays. The strain is maintained in RPMI-1640 medium supplemented with 0.37 mM hypoxanthine, 25 mM HEPES, 25 mM NaHCO3, and 10% O^+ human serum together with 2-4% washed human O^+ erythrocytes. All cultures and assays are conducted under an atmosphere of 4% CO2, 3% O2 and 93% N2. Assays are performed in 96-well microtiter plates, each well containing 10 μL of the watery compound dilutions together with 190 μL of the malaria parasite inoculum (1% parasitaemia, 2% HCT). After 72 h incubation, plates are frozen and stored at −20° C. After thawing, 20 μL of each well is transferred into another plate together with 100 μL Malstat reagent and 20 μL of 1/1 mixture of PES (phenazine ethosulfate, 0.1 mg/mL) and NBT (Nitro Blue Tetrazolium Grade III, 2 mg/mL). Change in colour is measured spectrophotometrically at 655 nm. The results are expressed as % reduction in parasitaemia compared to control wells. Compounds are treated at 5 concentrations (64-16-4-1 and 0.25 μM or μg/mL).

In data set [1] the test system is P. falciparum multidrug-resistant strain Dd2. Briefly: Dd2 growth inhibition, 3H-hypoxanthine assay. The format is cell-based, Plasmodium falciparum. To be noted: for IC50: Plasmodium falciparum, DD2, 48 h exposure then 24 h hypoxanthine, read-out: IC50 against Dd2. The protocol:
The IC50 was tested by standard in vitro antiproliferation assays (Desjardins et al, 1979 Antimicrob. Agents Chemother 1979, 16, 710-718). Infected erythrocytes in ring stage (0.5% parasitemia, 2.5% hematocrit) in 96-well plates were exposed to the compounds for 48 h and then to radioactive hypoxanthine for 24 h. The amount of radioactivity in precipitable material served as an index of cell proliferation.

Usually IC50 stands for the concentration that gives 50% inhibition. The term melting point denotes the temperature, or range, at which the solid turns liquid.

Molecules are shown by their SMILES. Read-outs that look alike come from different tables or passages of the source.

In the case of `C[C@H]1[C@H](OC(=O)CCC(=O)O)O[C@@H]2O[C@@]3(C)CC[C@H]4[C@H](C)CC[C@@H]1[C@@]24OO3` [Artesunate, reference compound], the concentration for half-maximal inhibition (IC50) in the data set on Pf-GHA (72 h) was found to be 0.005 µM.
Regarding `O=C1C=C(C(F)F)C(=O)c2ccccc21` [HB49, 2-Difluoromethyl-1,4-naphthoquinone], the melting point worked out at 74 °C.
The same measure, in the same setting: the result for `COc1c(C)c(C(O)c2ccc(Br)cc2)c(OC)c2ccccc12` (stereo not shown) [P_TM7, (4-Bromo-phenyl)-(1,4-dimethoxy-3-methyl-naphthalen-2-yl)-methanol] reads 67 to 68 °C; that for `CC1=C(C(=O)c2ccc(C(=O)O)cc2)C(=O)C2C=CC=CC2C1=O` (stereo not shown) [P_TM22, 4-(3-Methyl-1,4-dioxo-1,4,4a,8a-tetrahydro-naphthalene-2-carbonyl)-benzoic acid], 201 °C (dec.); that for `CC1=C(Cc2ccc(F)cc2)C(=O)C2C=CC=CC2C1=O` (stereo not shown) [P_TM26, 2-Methyl-3-(4-fluoro-benzyl)-4a,8a-dihydro-[1,4]naphthoquinone], 118 to 119 °C.
On the same count and under the same terms, the result for `COC(=O)c1ccc(C(=O)C2=C(C)C(=O)c3ccccc3C2=O)cc1` [P_TM28, 4-(3-Methyl-1,4-dioxo-1,4-dihydro-naphthalene-2-carbonyl)-benzoic acid methyl ester] reads 162 °C.
`CC1=C(Cc2ccc(Cl)cc2)C(=O)C2C=CC=CC2C1=O` (stereo not shown) [P_TM30, 2-Methyl-3-(4-chloro-benzyl)-4a,8a-dihydro-[1,4]naphthoquinone] registered a melting point of 134 to 135 °C. Besides, the IC50 in data set [1] is less than 0.1 µM. Moreover, the IC50 in the data set on Pf-GHA (72 h incubation) was less than 5 µM.
`COc1ccc(CC2=C(C)C(=O)C3C=CC=CC3C2=O)cc1` (stereo not shown) [P_TM31, 2-Methyl-3-(4-methoxy-benzyl)-4a,8a-dihydro-[1,4]naphthoquinone] displayed a melting point of 112 to 113 °C. Further, in data set [1], the half-maximal inhibitory concentration (IC50) was less than 0.1 µM.
The like results for `COc1ccccc1CC1=C(C)C(=O)C2C=CC=CC2C1=O` (stereo not shown) [P_TM32, 2-Methyl-3-(2-methoxy-benzyl)-4a,8a-dihydro-[1,4]naphthoquinone] were, in that order, 117 to 118 °C and less than 0.1 µM.
`COc1ccccc1C(=O)C1=C(C)C(=O)C2C=CC=CC2C1=O` (stereo not shown) [P_TM35, 2-Methyl-3-(2-methoxy-benzoyl)-4a,8a-dihydro-[1,4]naphthoquinone] came in with a melting point of 146 to 147 °C.
In the case of `CC1=C(C(=O)c2ccc(Cl)cc2)C(=O)C2C=CC=CC2C1=O` (stereo not shown) [P_TM38, 2-Methyl-3-(4-chloro-benzoyl)-4a,8a-dihydro-[1,4]naphthoquinone], the IC50 in the data set on Pf-GHA (72 h incubation) is less than 5 µM.
On to `CC1=C(Cc2ccc(C#N)cc2)C(=O)C2C=CC=CC2C1=O` (stereo not shown) [P_TM41, 2-Methyl-3-(4-cyano-benzyl)-4a,8a-dihydro-[1,4]naphthoquinone], for which the melting point lay within 159 to 160 °C. For the same molecule, in data set [1], the IC50 is less than 0.1 µM. In addition, the concentration for half-maximal inhibition (IC50) in the data set on Pf-GHA (72 h incubation) is less than 5 µM.
`CC1=C(Cc2ccc(Br)cc2)C(=O)C2C(O)=CC=CC2C1=O` (stereo not shown) [P_TM42, 3-(4-Bromo-benzyl)-5-hydroxy-2-methyl-4a,8a-dihydro-[1,4]naphthoquinone] yielded a melting point of 163 to 164 °C. Moreover, in the data set on Pf-GHA (72 h incubation), the concentration for half-maximal inhibition (IC50) was less than 5 µM.
Molecule `CC1=C(Cc2ccc(NC(=O)OC(C)(C)C)cc2)C(=O)C2C=CC=CC2C1=O` (stereo not shown) [P_TM45, [4-(3-Methyl-1,4-dioxo-1,4,4a,8a-tetrahydro-naphthalen-2-ylmethyl)-phenyl]-carbamic acid tert-butyl ester] came in with a melting point of 148 to 149 °C.
For `CC1=C(C(=O)c2ccc(C#N)cc2)C(=O)C2C=CC=CC2C1=O` (stereo not shown) [P_TM46, 2-Methyl-3-(4-cyano-benzoyl)-4a,8a-dihydro-[1,4]naphthoquinone], the melting point was 185 to 186 °C. Moreover, in the data set on Pf-GHA (72 h incubation), the IC50 is less than 5 µM.
`CC1=C(C(=O)c2ccc(C(C)(C)C)cc2)C(=O)C2C=CC=CC2C1=O` (stereo not shown) [P_TM48, 2-Methyl-3-(4-tertbutyl-benzoyl)-4a,8a-dihydro-[1,4]naphthoquinone] gave a melting point of 64 to 65 °C.
The same measure, in the same setting: the result for `CC1=C(Cc2ccc(C(=O)O)cc2)C(=O)C2C=CC=CC2C1=O` (stereo not shown) [P_TM50, 4-(3-Methyl-1,4-dioxo-1,4,4a,8a-tetrahydro-naphthalen-2-ylmethyl)-benzoic acid] reads 206 to 208 °C; that for `CC1=C(Cc2ccc(C(=O)NCCC#N)cc2)C(=O)C2C=CC=CC2C1=O` (stereo not shown) [P_TM53, N-(2-Cyano-ethyl)-4-(3-methyl-1,4-dioxo-1,4,4a,8a-tetrahydronaphthalen-2-ylmethyl)-benzamide], 131 to 132 °C.
Still for that read-out and setting: then `COc1ccc(CC2=C(C)C(=O)C3C=CC=CC3C2=O)cc1OC` (stereo not shown) [P_TM54, 2-(3,4-Dimethoxy-benzyl)-3-methyl-4a,8a-dihydro-[1,4]naphthoquinone], with 102 to 103 °C; and `COc1ccc(CC2=C(C)C(=O)C3C=CC=CC3C2=O)c(OC)c1` (stereo not shown) [P_TM56, 2-(2,4-Dimethoxy-benzyl)-3-methyl-4a,8a-dihydro-[1,4]naphthoquinone], with 103 to 105 °C.
`COc1cc(CC2=C(C)C(=O)C3C=CC=CC3C2=O)cc(OC)c1` (stereo not shown) [P_TM58, 2-(3,5-Dimethoxy-benzyl)-3-methyl-4a,8a-dihydro-[1,4]naphthoquinone] had a melting point of 127 to 128 °C. Besides, the IC50 in data set [1] is less than 0.1 µM. Moreover, the concentration for half-maximal inhibition (IC50) with Pf-GHA (72 h incubation) is less than 5 µM.
The molecule `COc1ccc(OC)c(CC2=C(C)C(=O)C3C=CC=CC3C2=O)c1` (stereo not shown) [P_TM60, 2-(2,5-Dimethoxy-benzyl)-3-methyl-4a,8a-dihydro-[1,4]naphthoquinone] displayed a melting point of 140 to 142 °C. Moreover, in data set [1], the IC50 is less than 0.1 µM.
In the case of `CC1=C(Cc2ccccc2)C(=O)C2C=CC=CC2C1=O` (stereo not shown) [P_TM62, 2-Methyl-3-benzyl-4a,8a-dihydro-[1,4]naphthoquinone], the melting point was in the range of 103 to 104 °C. Besides, in data set [1] (compared with substituted benzyl derivatives), the “antimalarial activity against Dd2” value is reported as “less active”.
On to `CC1=C(Cc2ccc(-c3ccc(C(C)(C)C)cc3)cc2)C(=O)c2ccccc2C1=O` [P_TM66, 2-(4′-tert-Butyl-biphenyl-4-ylmethyl)-3-methyl-[1,4]naphthoquinone], for which the melting point was in the range of 112 to 114 °C. For the same molecule, the 50% inhibitory concentration (IC50) in the data set on Pf-GHA (72 h incubation) was less than 5 µM.
As to `CCCCC(C1=C(C)C(=O)c2ccccc2C1=O)c1ccc(-c2ccc([N+](=O)[O-])cc2)cc1` (stereo not shown) [P_TM67, 2-(4′-nitro-Butyl-biphenyl-4-ylmethyl)-3-methyl-[1,4]naphthoquinone], the half-maximal inhibitory concentration (IC50) in the data set on Pf-GHA (72 h incubation) is less than 5 µM.
As to `COc1c(C)c(Cc2ccc(Cl)cc2)c(OC)c2ccccc12` [P_TM75, 2-(4-Chloro-benzyl)-1,4-dimethoxy-3-methyl-naphthalene], the melting point is 101 to 102 °C.
Still for that read-out and setting: then `COc1c(C)c(Cc2ccc(N3CCN(Cc4ccc(C(C)(C)C)cc4)CC3)cc2)c(OC)c2ccccc12` [P_TM78, 1-(4-tert-Butyl-benzyl)-4-[4-(1,4-dimethoxy-3-methyl-naphthalen-2-ylmethyl)-phenyl]piperazine], with 63 to 65 °C.
With `CC1=C(Cc2ccc(C(C)(C)C)cc2)C(=O)c2c(O)cccc2C1=O` [P_TM81, 3-(4-tert-Butyl-benzyl)-5-hydroxy-2-methyl-[1,4]naphthoquinone], the melting point lay within 112 to 113 °C. Also, the half-maximal inhibitory concentration (IC50) with Pf-GHA (72 h incubation) was less than 5 µM.
The molecule `COc1cccc(CC2=C(C)C(=O)c3ccccc3C2=O)c1` [P_TM96, 2-(3-Methoxy-benzyl)-3-methyl-[1,4]naphthoquinone] had a melting point of 87 to 88 °C.
Same read-out and setting: then `CC1=C(Cc2cccc(Br)c2)C(=O)C2C=CC=CC2C1=O` (stereo not shown) [P_TM99, 2-Methyl-3-(3-bromo-benzyl)-4a,8a-dihydro-[1,4]naphthoquinone], with 108 to 109 °C.
Still for that read-out and setting: then `CC1=C(Cc2ccc(C(C)C)cc2)C(=O)C2C=CC=CC2C1=O` (stereo not shown) [P_TM100, 2-Methyl-3-(4-isopropyl-benzyl)-4a,8a-dihydro-[1,4]naphthoquinone], with 64 to 65 °C; and `O=C1C(Cc2ccc(Br)cc2)=C(C(F)F)C(=O)c2ccccc21` [P_TM101, 2-(4-Bromo-benzyl)-3-difluoromethyl-[1,4]naphthoquinone], with 103 to 104 °C; and `CC1=C(Cc2ccc(N)cc2)C(=O)C2C=CC=CC2C1=O` (stereo not shown) [P_TM103, 2-Methyl-3-(4-amino-benzyl)-4a,8a-dihydro-[1,4]naphthoquinone], with 152 to 153 °C.
As for `O=C1C(O)=C([C@H]2CC[C@H](c3ccc(Cl)cc3)CC2)C(=O)c2ccccc21` [atovaquone, reference compound], the concentration for half-maximal inhibition (IC50) in data set [1] is less than 0.0001 µM; in the data set on Pf-GHA (72 h incubation), 0.31 µM.
